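96-well plates; 48 h exposure; 5 concentrations. Endpoints by linear interpolation between flanking doses. Not reached: highest tested concentration assigned. GI50 = concentration required for 50% inhibition of growth.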 Calls of active or inactive are those of the source. Rule as the data show it: active = GI50 up to about 1.1 µM and inactive = higher.
Columns and labels:
Experiment in all cases: NCI anticancer screen, dose series, 48 h
786-0 = system: 786-0
SK-OV-3 = system: SK-OV-3
NCI-H226 = system: NCI-H226
SN12C = system: SN12C
HOP-92 = system: HOP-92
HT-29 = system: HT-29
U-251 = system: U-251
Malme-3M = system: Malme-3M
TK-10 = system: TK-10
A549 = system: A549
NCI-H23 = system: NCI-H23
HCC 2998 = system: HCC 2998
NCI-H522 = system: NCI-H522
LOX IMVI = system: LOX IMVI
EKVX = system: EKVX
SF-268 = system: SF-268
UO-31 = system: UO-31

Measured: GI50

Cc1cn2c(=O)c3ccccc3nc2s1
inactive: 786-0 > 100 µM | SK-OV-3 > 100 µM | NCI-H226 > 100 µM | SN12C > 100 µM | HOP-92 > 100 µM | HT-29 > 100 µM | U-251 > 100 µM | Malme-3M > 100 µM | TK-10 > 100 µM | A549 > 100 µM | NCI-H23 > 100 µM | HCC 2998 > 100 µM | NCI-H522 > 100 µM | LOX IMVI > 100 µM | EKVX > 100 µM | SF-268 > 100 µM | UO-31 > 100 µM

c1ccc([P+](c2ccccc2)(c2ccccc2)C2Sc3ccccc3S2)cc1
inactive: 786-0 17.3 µM | SK-OV-3 28.8 µM | NCI-H226 12.5 µM | SN12C 16.6 µM | HOP-92 > 100 µM | HT-29 23 µM | U-251 16 µM | Malme-3M 13.9 µM | TK-10 21 µM | A549 15 µM | NCI-H23 10.5 µM | HCC 2998 15.7 µM | NCI-H522 14.9 µM | LOX IMVI 11.4 µM | EKVX 22.9 µM | SF-268 17.2 µM | UO-31 16.1 µM

CC1CN1c1c(C(=O)/C=C/c2ccc(Cl)cc2)c(-c2ccccc2)nn(C)c1=O (stereo not drawn)
inactive: 786-0 2.81 µM | SK-OV-3 2.59 µM | NCI-H226 4.99 µM | SN12C 3.11 µM | HOP-92 > 10 µM | HT-29 3.65 µM | U-251 2.35 µM | Malme-3M 8.97 µM | TK-10 2.92 µM | A549 4.42 µM | NCI-H23 2.77 µM | HCC 2998 1.99 µM | NCI-H522 2.18 µM | LOX IMVI 2.08 µM | EKVX 3.63 µM | SF-268 3.98 µM | UO-31 6.44 µM

CN=[S+]([O-])(c1ccccc1)c1ccccc1
inactive: 786-0 > 100 µM | SK-OV-3 > 100 µM | NCI-H226 > 100 µM | SN12C > 100 µM | HOP-92 > 100 µM | HT-29 > 100 µM | U-251 > 100 µM | Malme-3M > 100 µM | TK-10 > 100 µM | A549 > 100 µM | NCI-H23 > 100 µM | HCC 2998 > 100 µM | NCI-H522 > 100 µM | LOX IMVI > 100 µM | EKVX > 100 µM | SF-268 > 100 µM | UO-31 > 100 µM

Reference: ChEMBL document CHEMBL1201862, “PubChem BioAssay data set” (2004)
